Read-outs that look alike come from different tables or passages of the source.
Key:
[1] = system: epithelial carcinoma A431 cell line; experiment: MTT Cell Proliferation Assay, A431 cells; type: cell-based; settings: for IC50: Homo sapiens; for MTT Follow-up: ratio in parentheses: ratio MDBK/A431; for MTT Assay IC50(A431/MDBK): ratio in parentheses: ratio MDBK IC50 / A431 IC50 (selectivity)
Outline: (§1)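 Viability was measured by mitochondrial MTT reduction after cells were exposed to compound for 3 days in reduced-serum medium. Inhibition was calculated per plate against 0.5% DMSO controls.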

EGFR = target: T1, EGFR (Homo sapiens, UniProt P00533); experiment: EGFR in-cell Western (ICW) screening protocol (EGFR inhibition assay); type: cell-based; set-up: ICW 1 / ICW 2 / ICW Avg: unit not given here; settings: ICW assay; for ICW Avg: average of runs 1 and 2; for ICW 1: run 1; for ICW 2: run 2
T1 construct: host or cells: A431
Outline: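 Serum-starved A431 cells (2 h) were pretreated with compound for 4 h at 37° C, then stimulated with EGF (10 ng/ml final, or 6.6 or 12.5 ng/ml in some runs) for 10 min. After formaldehyde fixation, phospho-EGFR (Tyr1173, or Tyr1045 in some runs) and total EGFR were detected by in-cell Western immunostaining.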

MDBK line = experiment: MTT Cell Proliferation Assay, MDBK cells; type: cell-based, bovine; settings: MDBK cells
Outline: as §1

[2] = A-431, follow-up MTT, A431 cells, first value, read-out: MTT Follow-up: A431
[3] = Bos taurus, MDBK, follow-up MTT, second value, read-out: MTT Follow-up: MDBK
[4] = A-431, A431 cells, first value of cell, read-out: MTT Assay IC50(A431/MDBK): A431
[5] = Bos taurus, MDBK, second value of cell, read-out: MTT Assay IC50(A431/MDBK): MDBK

T1 sequence (P00533 25-1210): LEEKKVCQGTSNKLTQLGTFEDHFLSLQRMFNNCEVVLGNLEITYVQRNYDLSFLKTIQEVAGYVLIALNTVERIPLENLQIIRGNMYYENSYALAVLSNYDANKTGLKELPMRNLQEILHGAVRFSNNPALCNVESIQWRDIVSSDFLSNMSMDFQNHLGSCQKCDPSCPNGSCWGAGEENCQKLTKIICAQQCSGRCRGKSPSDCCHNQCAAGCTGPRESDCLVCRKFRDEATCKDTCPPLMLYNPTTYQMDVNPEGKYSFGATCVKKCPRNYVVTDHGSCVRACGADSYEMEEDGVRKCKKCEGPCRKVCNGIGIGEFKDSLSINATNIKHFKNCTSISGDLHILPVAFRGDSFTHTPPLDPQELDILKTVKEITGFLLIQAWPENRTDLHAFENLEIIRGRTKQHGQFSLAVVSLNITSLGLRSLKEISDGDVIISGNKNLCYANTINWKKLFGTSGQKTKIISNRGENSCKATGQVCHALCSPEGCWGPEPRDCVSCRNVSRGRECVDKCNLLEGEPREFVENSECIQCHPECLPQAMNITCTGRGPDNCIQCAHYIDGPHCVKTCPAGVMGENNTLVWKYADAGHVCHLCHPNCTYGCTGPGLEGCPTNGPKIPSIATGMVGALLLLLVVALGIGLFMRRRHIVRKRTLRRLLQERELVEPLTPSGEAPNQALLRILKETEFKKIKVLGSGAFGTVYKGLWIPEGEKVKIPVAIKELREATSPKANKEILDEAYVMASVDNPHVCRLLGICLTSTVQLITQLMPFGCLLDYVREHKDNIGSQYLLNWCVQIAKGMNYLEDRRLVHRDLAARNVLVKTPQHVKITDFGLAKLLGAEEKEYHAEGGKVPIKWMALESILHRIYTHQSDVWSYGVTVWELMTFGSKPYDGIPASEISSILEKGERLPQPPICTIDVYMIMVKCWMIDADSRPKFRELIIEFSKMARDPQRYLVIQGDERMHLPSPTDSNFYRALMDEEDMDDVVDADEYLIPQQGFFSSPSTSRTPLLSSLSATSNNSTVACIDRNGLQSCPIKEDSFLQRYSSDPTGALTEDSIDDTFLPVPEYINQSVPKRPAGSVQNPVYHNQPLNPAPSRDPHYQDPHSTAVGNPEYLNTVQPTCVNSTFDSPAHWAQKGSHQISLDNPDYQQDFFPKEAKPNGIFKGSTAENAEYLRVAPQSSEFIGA

Row | IC50 [1, 2] [µM] | ICW Avg (EGFR) | ICW 1 (EGFR) | ICW 2 (EGFR) | IC50 [1, 4] [µM] | MTT Assay IC50(A431/MDBK): ratio in parentheses [1] | MTT Assay IC50(A431/MDBK): A431 ([1]; A431 cells, first value of cell) | Compound | MTT Follow-up: ratio in parentheses [1] | IC50 (MDBK line; [3]) [µM] | IC50 (MDBK line; [5]) [µM] | IC50 ([1]; A-431, A431 cells, normalized, read-out: MTT Assay IC50 (normalized): A431) [µM] | IC50 (MDBK line; Bos taurus, MDBK, normalized, read-out: MTT Assay IC50 (normalized): MDBK) [µM] | IC50 (MDBK line; second value of cell, read-out: MTT Assay IC50(A431/MDBK): MDBK) [µM]
1 | 1.26 | 82.50 | 77.05 | 87.95 | – | – | – | Cc1ccc2c(C)nc(Nc3nc(-c4ccccc4C)cc(=O)[nH]3)nc2c1 [compound 11511] | 0.45 | 0.57 | – | – | – | –
2 | 49.3 | 49.89 | 59.77 | 40.01 | 2.43 | – | – | Cc1nc(Nc2nc(CSc3nc4ccccc4[nH]3)cc(=O)[nH]2)nc2ccccc12 [compound 11582] | 1.13 | 55.9 | 2.44 | – | – | –
3 | – | 29.16 | 24.41 | 33.91 | 21.8 | 0.84 | – | Cc1ccc2nc(Nc3nc(CSc4nc5ccccc5s4)cc(=O)[nH]3)nc(C)c2c1 [compound 11592] | – | – | 18.3 | – | – | –
4 | 3.67 | 56.08 | 58.11 | 54.06 | 1.29 | – | – | Cc1ccc2nc(Nc3nc(=O)cc(-c4ccccc4)[nH]3)nc(C)c2c1 [compound 11601] | 13.23 | 48.6 | 2.62 | 0.738 | 2.61 | –
5 | – | 27.23 | 28.83 | 25.63 | 36 | 0.68 | – | COC(=O)Cc1cc(=O)nc(Nc2nc(C)c3ccccc3n2)[nH]1 [compound 11609] | – | – | 24.3 | – | – | –
6 | – | 31.67 | 22.50 | 40.84 | 4.98 | – | – | Cc1ccc2c(=O)nc(Nc3nc(C)cc(-c4ccccc4)n3)[nH]c2c1 [compound 11610] | – | – | 17.4 | – | – | –
7 | – | 29.18 | 27.71 | 30.66 | 6.01 | 3.28 | – | COc1ccc2nc(Nc3nc(CSc4ccc(C)cc4)cc(=O)[nH]3)nc(C)c2c1 [compound 11617] | – | – | 19.7 | – | – | –
8 | – | 26.08 | 22.54 | 29.61 | 14 | 1.59 | – | Cc1nc(Nc2nc(=O)cc(-c3ccccc3)[nH]2)nc2c(C)cccc12 [compound 11624] | – | – | 22.4 | – | – | –
9 | – | 62.56 | 61.28 | 63.84 | 26.8 | – | – | Cc1cc(C)nc(Nc2nc(-c3ccccc3)c3ccc(Cl)cc3n2)n1 [compound 11636] | – | – | – | – | – | 14.7
10 | 51.5 | 68.05 | 66.55 | 69.55 | 2.44 | – | – | COc1cccc2c(C)nc(Nc3nc(-c4ccccc4)cc(=O)[nH]3)nc12 [compound 11741] | 1.01 | 51.9 | 2.44 | – | – | –
11 | – | 25.51 | 25.87 | 25.14 | 9.88 | 0.64 | – | Cc1ccc2nc(Nc3nc(CSc4ncccn4)cc(=O)[nH]3)nc(C)c2c1 [compound 11751] | – | – | 6.31 | – | – | –
12 | 14.1 | 37.09 | 40.96 | 33.21 | – | – | non-convergent | CCOc1cccc2c(C)nc(Nc3nc(CSc4ccc(C)cc4)cc(=O)[nH]3)nc12 [compound 11755] | 0.23 | 3.24 | – | – | – | –
13 | – | 47.78 | 53.63 | 41.93 | 53.8 | – | – | COc1cccc2c(C)nc(Nc3nc(C(F)(F)F)cc(=O)[nH]3)nc12 [compound 11758] | – | – | 576 | – | – | –
14 | – | 25.87 | 37.92 | 13.81 | 6.6 | 1.62 | – | Cc1ccc2c(C)nc(Nc3nc4c(c(-c5ccccc5)n3)CCCC4)nc2c1 [compound 11777] | – | – | 10.7 | – | – | –
